Reference: DBAASP
In brackets after ≈: the same amount, converted by molar mass. Several values for one entry are separate records, joined by “and”; a condition that tells them apart may be missing. Equal values may be shown once.

Assays:
Test in all cases: ≥ marks a high value that may be exact or a test limit, other limits are often not marked, values filed in µg/mL are converted to µM
[1] = system: Escherichia coli ATCC 25922
Escherichia coli = system: Escherichia coli
Staphylococcus aureus = system: Staphylococcus aureus
[2] = system: Pseudomonas aeruginosa ATCC 27853
[3] = system: Staphylococcus aureus ATCC 25923

| MIC [1] | MIC [3] [µM] | also measured | SMILES |
| --- | --- | --- | --- |
| 4 µM (≈ 9.34 µg/mL) |  |  | CC[C@H](C)[C@H](NC(=O)CN)C(=O)N[C@@H](CCCN=C(N)N)C(=O)N[C@@H](CC(=O)O)C(=O)N[C@H](C(=O)N[C@@H](CC(C)C)C(=O)N[C@@H](CCCCN)C(=O)NCC(=O)N[C@@H](C)C(=O)N[C@@H](C)C(=O)N[C@@H](CCCCN)C(=O)N[C@@H](C)C(=O)N[C@@H](Cc1ccccc1)C(=O)N[C@H](C(=O)N[C@@H](CCCCN)C(=O)N[C@H](C(=O)N[C@H](C(=O)N[C@@H](C)C(=O)NCC(=O)N[C@@H](Cc1cnc[nH]1)C(=O)N[C@H](C(=O)N[C@@H](C)C(=O)N[C@@H](CC(N)=O)C(N)=O)[C@@H](C)CC)C(C)C)[C@@H](C)O)C(C)C)C(C)C [GIRDVLKGAAKAFVKTVAGHIAN] |
| 2 µM (≈ 5.44 µg/mL) |  |  | CC[C@H](C)[C@H](N)C(=O)N[C@H](C(=O)N[C@@H](CCCCN)C(=O)N[C@@H](CCCCN)C(=O)N[C@@H](Cc1ccccc1)C(=O)N[C@@H](CC(C)C)C(=O)N[C@@H](Cc1cnc[nH]1)C(=O)N[C@@H](CO)C(=O)N[C@H](C(=O)N[C@@H](Cc1c[nH]c2ccccc12)C(=O)N[C@@H](CCCCN)C(=O)N[C@@H](Cc1ccccc1)C(=O)NCC(=O)N[C@@H](CCCCN)C(=O)N[C@@H](C)C(=O)N[C@@H](Cc1ccccc1)C(=O)N[C@H](C(=O)NCC(=O)N[C@@H](CCC(=O)O)C(=O)N[C@H](C(=O)N[C@@H](CCSC)C(=O)N[C@@H](CC(N)=O)C(=O)N[C@H](C(=O)O)[C@@H](C)CC)[C@@H](C)CC)C(C)C)[C@@H](C)CC)[C@@H](C)CC [IIKKFLHSIWKFGKAFVGEIMNI] |
|  |  | MIC (Escherichia coli): 7 µM (≈ 18.7 µg/mL); MIC (Staphylococcus aureus): 1.5 µM (≈ 4.01 µg/mL) | CC[C@H](C)[C@H](NC(=O)[C@H](CCCCN)NC(=O)[C@@H]1CCCN1C(=O)[C@H](CC(C)C)NC(=O)[C@H](Cc1ccccc1)NC(=O)[C@H](CC(N)=O)NC(=O)[C@H](C)NC(=O)[C@H](C)NC(=O)[C@@H]1CSSC[C@H](NC(=O)[C@H](CC(C)C)NC(=O)CNC(=O)[C@H](C)NC(=O)[C@H](CC(C)C)NC(=O)[C@H](CC(C)C)NC(=O)[C@@H]2CCCN2C(=O)[C@H](CC(C)C)NC(=O)[C@@H](N)Cc2ccccc2)C(=O)N[C@@H](CCCCN)C(=O)N[C@@H]([C@@H](C)CC)C(=O)N[C@@H]([C@@H](C)O)C(=O)N[C@@H](CCCN=C(N)N)C(=O)N[C@@H](CCCCN)C(=O)N1)C(=O)N[C@@H](Cc1ccccc1)C(=O)O [FLPLLAGLCKITRKCAANFLPKIF] |
| > 100 µM | > 100 | MIC [2]: > 100 µM | CC[C@H](C)[C@H](NC(=O)CNC(=O)[C@H](CO)NC(=O)[C@H](CCCN=C(N)N)NC(=O)[C@@H](NC(=O)CNC(=O)[C@H](Cc1c[nH]c2ccccc12)NC(=O)[C@@H](N)CC(C)C)[C@@H](C)O)C(=O)N[C@@H](CCC(N)=O)C(=O)N1CCC[C@H]1C(N)=O [LWGTRSGIQP] |
| 115 µM (≈ 99.9 µg/mL) | 57.7 (≈ 49.9 µg/mL) |  | NC(=O)[C@H](Cc1ccc(O)cc1)NC(=O)[C@H](CCCN=C(N)N)NC(=O)[C@H](Cc1c[nH]c2ccccc12)NC(=O)[C@H](CCCN=C(N)N)NC(=O)[C@@H](N)Cc1c[nH]c2ccccc12 [WRWRY] |
|  |  | MIC (Escherichia coli): 0.349 µM (≈ 0.599 µg/mL) | CC(C)[C@H](N)C(=O)N[C@H]1CSSC[C@@H](C(=O)N[C@H](C(=O)NCC(=O)N[C@@H](CCCN=C(N)N)C(=O)O)C(C)C)NC(=O)[C@H](C(C)C)NC(=O)[C@@H]2CSSC[C@H](NC(=O)[C@H](Cc3ccc(O)cc3)NC1=O)C(=O)N[C@@H](CCCN=C(N)N)C(=O)N[C@@H](CCCN=C(N)N)C(=O)N[C@@H](CCCN=C(N)N)C(=O)N[C@@H](Cc1ccccc1)C(=O)N2 [VCYCRRRFCVCVGR] |
| 8.87 µM (≈ 18.1 µg/mL) |  |  | CC[C@H](C)[C@H](NC(=O)[C@H](C)NC(=O)CNC(=O)[C@H](C)NC(=O)[C@H](CCCCN)NC(=O)[C@H](CO)NC(=O)[C@H](C)NC(=O)[C@H](CCSC)NC(=O)CN)C(=O)N[C@@H](C)C(=O)NCC(=O)N[C@@H](CCCCN)C(=O)N[C@H](C(=O)N[C@@H](C)C(=O)N[C@@H](CCCCN)C(=O)N[C@H](C(=O)N[C@@H](C)C(=O)N[C@@H](Cc1c[nH]c2ccccc12)C(=O)N[C@@H](CCCCN)C(=O)N[C@@H](C)C(=O)N[C@@H](CC(C)C)C(N)=O)C(C)C)[C@@H](C)CC [GMASKAGAIAGKIAKVAWKAL] |
|  |  | MIC (Escherichia coli): 20.6 µM (≈ 22.6 µg/mL); MIC (Staphylococcus aureus): > 58.2 µM | CC[C@H](C)[C@H](NC(=O)[C@H](CS)NC(=O)[C@H](CCCN=C(N)N)NC(=O)[C@@H](N)CC(C)C)C(=O)N[C@@H](C)C(=O)N[C@@H](CC(C)C)C(=O)N[C@@H](CCCN=C(N)N)C(=O)N[C@@H](CCCCN)C(=O)N[C@@H](CCCCN)C(N)=O [LRCIALRKK] |
|  |  | MIC (Escherichia coli): 20.3 µM (≈ 40 µg/mL) | CC[C@H](C)[C@H](NC(=O)[C@H](CC(C)C)NC(=O)[C@H](C)NC(=O)[C@H](Cc1ccccc1)NC(=O)[C@H](Cc1ccccc1)NC(=O)CN)C(=O)N[C@@H](C)C(=O)N[C@@H](CCCCN)C(=O)N[C@H](C(=O)N[C@H](C(=O)N[C@@H](CO)C(=O)N[C@@H](CO)C(=O)N1CCC[C@H]1C(=O)N[C@@H](CC(C)C)C(=O)N[C@@H](Cc1ccccc1)C(=O)N[C@@H](CCCCN)C(=O)N[C@H](C(=O)N[C@@H](CC(C)C)C(N)=O)[C@@H](C)O)[C@@H](C)CC)[C@@H](C)CC [GFFALIAKIISSPLFKTL] |
|  |  | MIC (Escherichia coli): 70 µM (≈ 144 µg/mL); MIC (Staphylococcus aureus): > 100 µM | CC[C@H](C)[C@H](NC(=O)CN)C(=O)N[C@@H](CC(C)C)C(=O)N[C@@H](CO)C(=O)N[C@@H](CC(N)=O)C(=O)N[C@H](C(=O)N[C@@H](CC(C)C)C(=O)NCC(=O)N[C@@H](CCSC)C(=O)NCC(=O)N[C@@H](CCCCN)C(=O)N[C@@H](CCCCN)C(=O)N[C@H](C(=O)N[C@H](C(=O)N[C@H]1CSSC[C@@H](C(=O)O)NC(=O)[C@H](CC(C)C)NC(=O)CNC(=O)[C@H](CO)NC(=O)[C@H](CC(C)C)NC(=O)CNC1=O)C(C)C)[C@@H](C)CC)C(C)C [GILSNVLGMGKKIVCGLSGLC] |
|  |  | MIC [2]: 32 µM (≈ 74.9 µg/mL) | CC[C@H](C)[C@H](NC(=O)[C@H](CCSC)NC(=O)[C@H](CCCN=C(N)N)NC(=O)CNC(=O)[C@H](C)NC(=O)[C@H](Cc1cnc[nH]1)NC(=O)[C@H](Cc1ccccc1)NC(=O)[C@H](CC(C)C)NC(=O)CNC(=O)[C@H](CCCCN)NC(=O)[C@@H](NC(=O)[C@@H](NC(=O)[C@H](Cc1cnc[nH]1)NC(=O)[C@H](Cc1ccccc1)NC(=O)[C@H](Cc1ccccc1)NC(=O)[C@@H](N)Cc1ccccc1)[C@@H](C)CC)[C@@H](C)CC)C(=O)N[C@@H](Cc1cnc[nH]1)C(=O)NCC(=O)N[C@@H](CC(C)C)C(=O)N[C@H](C(=O)O)C(C)C [FFFHIIKGLFHAGRMIHGLV] |
| 44.3 µM and 62.7 µM |  |  | CC[C@H](C)[C@H](NC(=O)[C@H](Cc1cnc[nH]1)NC(=O)[C@H](CCCN=C(N)N)NC(=O)[C@H](Cc1c[nH]c2ccccc12)NC(=O)[C@@H](NC(=O)[C@H](CCCN=C(N)N)NC(=O)[C@H](CCCCN)NC(=O)[C@H](C)NC(=O)CNC(=O)[C@H](CCCN=C(N)N)NC(=O)[C@H](CCSC)NC(=O)[C@H](C)NC(=O)[C@@H](N)CC(N)=O)C(C)C)C(N)=O [NAMRGAKRVWRHI] |
| 1620 µM (≈ 1250 µg/mL) | 809 (≈ 625 µg/mL) |  | CC(C)[C@H](NC(=O)[C@H](C)NC(=O)[C@@H](N)CCC(N)=O)C(=O)N[C@@H](CCC(=O)O)C(=O)N[C@@H](C)C(=O)N[C@@H](CCC(N)=O)C(=O)N[C@@H](CCCCN)C(=O)O [QAVEAQK] |
| 32 µM (≈ 59.4 µg/mL) |  |  | CC(C)C[C@H](NC(=O)[C@H](Cc1ccccc1)NC(=O)[C@@H]1CCCN1C(=O)[C@H](Cc1c[nH]c2ccccc12)NC(=O)[C@H](Cc1ccc(O)cc1)NC(=O)[C@H](Cc1ccc(O)cc1)NC(=O)[C@@H]1CCCN1C(=O)[C@H](Cc1ccccc1)NC(=O)[C@H](CCCN=C(N)N)NC(=O)[C@H](CCCN=C(N)N)NC(=O)[C@@H](N)C(C)C)C(=O)N[C@@H](CCCN=C(N)N)C(=O)N[C@@H](CCCN=C(N)N)C(N)=O [VRRFPYYWPFLRR] |
| > 36.9 µM | > 36.9 |  | CC(C)C[C@H](NC(=O)[C@H](CC(C)C)NC(=O)[C@@H](NC(=O)[C@H](CCCCN)NC(=O)[C@H](C)NC(=O)[C@H](CCCN=C(N)N)NC(=O)[C@H](CCCCN)NC(=O)[C@H](CC(C)C)NC(=O)[C@H](CC(C)C)NC(=O)CN)[C@@H](C)O)C(N)=O [GLLKRAKTLL] |
| > 100 µM | > 100 | MIC [2]: > 100 µM | CC(C)[C@H](NC(=O)[C@H](CC(=O)O)NC(=O)[C@H](CO)NC(=O)[C@H](CCCCN)NC(=O)CNC(=O)[C@H](CO)NC(=O)[C@H](CO)NC(=O)[C@H](Cc1cnc[nH]1)NC(=O)[C@H](CCC(N)=O)NC(=O)[C@@H](N)CCC(=O)O)C(N)=O [EQHSSGKSDV] |
| > 125 µM |  | MIC [2]: > 125 µM | CC[C@H](C)[C@H](NC(=O)[C@H](CCCCN)NC(=O)[C@H](CCCCN)NC(=O)[C@@H](NC(=O)[C@@H](NC(=O)[C@H](CC(=O)O)NC(=O)[C@H](Cc1ccccc1)NC(=O)[C@H](CC(C)C)NC(=O)CN)[C@@H](C)CC)[C@@H](C)CC)C(=O)N[C@@H](Cc1c[nH]c2ccccc12)C(=O)N[C@@H](CCC(=O)O)C(=O)N[C@@H](CO)C(=O)N[C@@H](Cc1ccccc1)C(N)=O [GLFDIIKKIWESF] |
| 2.47 µM (≈ 3 µg/mL) | 5.75 (≈ 6.99 µg/mL) |  | CC[C@H](C)[C@H](NC(=O)[C@H](Cc1ccccc1)NC(=O)[C@H](CCCCN)NC(=O)[C@H](CC(C)C)NC(=O)[C@H](CC(C)C)NC(=O)[C@@H](N)CCCCN)C(=O)N[C@@H](CCCCN)C(=O)N[C@H](C(=O)N[C@@H](CC(C)C)C(=O)N[C@@H](CC(C)C)C(N)=O)[C@@H](C)O [KLLKFIKTLL] |
| > 285 µM | 285 (≈ 200 µg/mL) |  | NC(=O)[C@H](Cc1c[nH]c2ccccc12)NC(=O)[C@H](CCCN=C(N)N)NC(=O)[C@H](CCCN=C(N)N)NC(=O)[C@@H](N)Cc1c[nH]c2ccccc12 [WRRW] |
| 100 µM (≈ 111 µg/mL) |  |  | CC[C@H](C)[C@H](NC(=O)[C@H](CCCN=C(N)N)NC(=O)[C@H](CO)NC(=O)[C@H](CC(C)C)NC(=O)[C@H](CC(C)C)NC(=O)CN)C(=O)N[C@@H](CCCCN)C(=O)N[C@H](C(=O)N[C@@H](CC(C)C)C(=O)N[C@@H](CC(C)C)C(N)=O)[C@@H](C)O [GLLSRIKTLL] |
